This note sets out measurements from USRE42274E1, “Cyclic peptide CXCR4 antagonists” (Eli Lilly and Company, priority 2007, dated 2011).

The nature of one data set: Half-life in mice. As to conditions: mouse, in vivo, read-out: half-life (T½) (converted). As to the method: (§1) Pharmacologic properties such as compound bioavailability, in vivo metabolic stability, and pharmacokinetic/pharmacodynamic properties can be determined by methods well known in the art of drug development. […] For example, in mice, the half-life (T½) of the compound of Example 58 is about 3 hours. With respect to pharmacodynamic properties, preferred compounds induce prolonged neutrophil and white blood cell mobilization in mice. For example, the compound of Example 25 induces a significant increase of neutrophils and white blood cells in peripheral blood for at least 6 hours after single dose subcutaneous administration at 5 mg/kg in mice.

Data set [1] can be described thus: In vivo metabolic stability in monkey. As to conditions: up to 24 hours after administration. As to the method: as §1
The nature of data set [2]: In vivo metabolic stability in dog. As to conditions: up to 24 hours after administration. As to the method:
as §1

Data set [3] concerns the target T1, human chemokine receptor CXCR2 (Homo sapiens, UniProt P25025).
T1 sequence (P25025 1-360): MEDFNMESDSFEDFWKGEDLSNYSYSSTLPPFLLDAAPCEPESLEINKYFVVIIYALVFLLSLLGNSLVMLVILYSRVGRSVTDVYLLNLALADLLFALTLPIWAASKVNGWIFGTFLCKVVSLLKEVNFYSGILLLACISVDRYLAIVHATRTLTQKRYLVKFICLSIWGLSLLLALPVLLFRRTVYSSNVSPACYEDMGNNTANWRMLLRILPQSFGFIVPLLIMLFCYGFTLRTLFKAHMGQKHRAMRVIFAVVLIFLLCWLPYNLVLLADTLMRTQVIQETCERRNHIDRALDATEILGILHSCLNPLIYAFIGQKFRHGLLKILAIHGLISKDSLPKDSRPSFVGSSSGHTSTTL
Nature of the data set: Chemokine receptor binding selectivity assay, ligand binding. From the text:
Chemokine Receptor Binding Selectivity Assays
The binding selectivity of the present compounds for the CXCR4 receptor compared to that for other chemokine receptors, such as human CCR1, CCR2, CXCR2, or CXCR3, and other G-protein-coupled receptors, can be assessed in cells transfected with nucleic acid encoding and expressing such receptors, or in cells in which such receptors are endogenously expressed. Whole cells or membrane fragments can be used to assess competition of test compounds with the respective ligands for these receptors in a manner similar to that described above for the CXCR4/^125I-SDF-1α binding inhibition assay.

Counter-ions that a name gives are not always drawn. Bridge positions count the residues as written; N and C are the ends. Square brackets hold non-standard residues; d marks the D form. Peptide text beside a SMILES is read from it. 2Nal = N[C@@H](Cc1ccc2ccccc2c1)C(=O)O; Lys(iPr) = CC(C)NCCCC[C@H](N)C(=O)O

Broadly, the half-life is the time in which the quantity being followed falls by half. As for `CC(C)NCCCC[C@@H]1NC(=O)[C@H](Cc2ccc(O)cc2)NC(=O)[C@H](Cc2ccccc2)NC(=O)CC[C@H](C(=O)N[C@@H](CCCNC(=N)N)C(N)=O)NC(=O)CNC(=O)[C@H](Cc2ccc3ccccc3c2)NC(=O)[C@@H](CCCNC(=N)N)NC1=O` [Example 58, cyclo[Phe-Tyr-Lys(iPr)-DArg-2Nal-Gly-DGlu]-Arg-NH2] (FY[Lys(iPr)][dR][2Nal]G[dE]R-NH2; lactam N-7), the half-life in the data set “Half-life in mice” was about 3 h.

By Ki is commonly meant a measure of affinity in units of concentration, obtained from inhibition or displacement. In the case of `CC(C)NCCCC[C@H](NC(=O)[C@H]1CCC(=O)N[C@@H](Cc2ccccc2)C(=O)N[C@@H](Cc2ccc(O)cc2)C(=O)N[C@@H](CCCCNC(C)C)C(=O)N[C@H](CCCNC(=N)N)C(=O)N[C@@H](Cc2ccc3ccccc3c2)C(=O)NCC(=O)N1)C(N)=O` [Example 57a, cyclo[Phe-Tyr-Lys(iPr)-DArg-2Nal-Gly-DGlu]-Lys (iPr)-NH2.acetic acid salt] (FY[Lys(iPr)][dR][2Nal]G[dE][Lys(iPr)]-NH2; lactam N-7), the “metabolites in plasma and urine” value in data set [1] and in data set [2] was “no detectable metabolites” in each case. The same compound displayed a Ki in data set [3] of over 73 µM.
